Assay results published in ChEMBL document CHEMBL3425413, “Structure-based design and synthesis of covalent-reversible inhibitors to overcome drug resistance in EGFR” (Bioorg Med Chem, 2015).
Activity calls are given as the source filed them. No cut-off for these calls is given here.

What was measured:
[1] = biological target: Epidermal growth factor receptor (Homo sapiens, UniProt P00533); experiment: Inhibition of wild type N-terminal His6-tagged human EGFR kinase domain (702 to 1016 residues) expressed in Sf9 cells pre-incubated for 30 mins before ATP and substrate addition by homogeneous time-resolved FRET assay
Epidermal growth factor receptor (Homo sapiens, UniProt P00533), sequence (P00533 whole entry, the tested form may be a part): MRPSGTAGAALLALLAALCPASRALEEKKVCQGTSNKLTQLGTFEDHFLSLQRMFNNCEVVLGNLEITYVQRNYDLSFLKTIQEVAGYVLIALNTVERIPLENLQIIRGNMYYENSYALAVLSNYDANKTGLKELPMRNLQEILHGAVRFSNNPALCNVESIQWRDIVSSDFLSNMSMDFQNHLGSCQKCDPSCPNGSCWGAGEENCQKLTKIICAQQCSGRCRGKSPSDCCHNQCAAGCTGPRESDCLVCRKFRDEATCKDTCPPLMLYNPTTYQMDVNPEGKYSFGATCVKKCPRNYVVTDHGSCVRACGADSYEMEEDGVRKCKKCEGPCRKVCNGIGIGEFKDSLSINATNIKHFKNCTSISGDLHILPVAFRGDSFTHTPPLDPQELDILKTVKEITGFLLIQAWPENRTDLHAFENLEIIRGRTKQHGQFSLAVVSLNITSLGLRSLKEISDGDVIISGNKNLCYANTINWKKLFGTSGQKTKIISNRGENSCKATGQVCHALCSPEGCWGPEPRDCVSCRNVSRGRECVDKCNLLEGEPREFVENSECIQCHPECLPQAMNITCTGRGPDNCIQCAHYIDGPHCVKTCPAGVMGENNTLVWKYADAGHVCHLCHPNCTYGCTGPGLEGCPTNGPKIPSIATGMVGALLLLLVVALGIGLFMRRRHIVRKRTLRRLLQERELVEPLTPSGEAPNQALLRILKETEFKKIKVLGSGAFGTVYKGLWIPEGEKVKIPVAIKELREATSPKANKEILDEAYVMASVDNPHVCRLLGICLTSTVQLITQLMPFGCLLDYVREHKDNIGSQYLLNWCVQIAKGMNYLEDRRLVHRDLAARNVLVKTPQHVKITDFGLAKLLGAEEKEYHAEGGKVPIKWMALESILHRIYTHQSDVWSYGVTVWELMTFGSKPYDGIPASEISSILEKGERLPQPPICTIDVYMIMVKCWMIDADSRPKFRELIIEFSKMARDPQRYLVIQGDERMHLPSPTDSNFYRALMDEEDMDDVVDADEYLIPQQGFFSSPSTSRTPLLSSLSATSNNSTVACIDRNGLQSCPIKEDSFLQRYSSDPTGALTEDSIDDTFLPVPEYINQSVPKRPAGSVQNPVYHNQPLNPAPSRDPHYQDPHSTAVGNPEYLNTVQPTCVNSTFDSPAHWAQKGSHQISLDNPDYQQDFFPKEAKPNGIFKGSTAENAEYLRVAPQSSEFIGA

[2] = biological target: Epidermal growth factor receptor (Homo sapiens, UniProt P00533, L858R/T790M); experiment: Inhibition of GST-tagged human recombinant EGFR catalytic domain (668 to 1210 amino acids) T790M/L858R mutant expressed in Sf9 cells pre-incubated for 30 mins before ATP and substrate addition by homogeneous time-resolved FRET assay
Epidermal growth factor receptor (Homo sapiens, UniProt P00533, L858R/T790M), sequence (P00533 25-1210 T790M/L858R limits assumed): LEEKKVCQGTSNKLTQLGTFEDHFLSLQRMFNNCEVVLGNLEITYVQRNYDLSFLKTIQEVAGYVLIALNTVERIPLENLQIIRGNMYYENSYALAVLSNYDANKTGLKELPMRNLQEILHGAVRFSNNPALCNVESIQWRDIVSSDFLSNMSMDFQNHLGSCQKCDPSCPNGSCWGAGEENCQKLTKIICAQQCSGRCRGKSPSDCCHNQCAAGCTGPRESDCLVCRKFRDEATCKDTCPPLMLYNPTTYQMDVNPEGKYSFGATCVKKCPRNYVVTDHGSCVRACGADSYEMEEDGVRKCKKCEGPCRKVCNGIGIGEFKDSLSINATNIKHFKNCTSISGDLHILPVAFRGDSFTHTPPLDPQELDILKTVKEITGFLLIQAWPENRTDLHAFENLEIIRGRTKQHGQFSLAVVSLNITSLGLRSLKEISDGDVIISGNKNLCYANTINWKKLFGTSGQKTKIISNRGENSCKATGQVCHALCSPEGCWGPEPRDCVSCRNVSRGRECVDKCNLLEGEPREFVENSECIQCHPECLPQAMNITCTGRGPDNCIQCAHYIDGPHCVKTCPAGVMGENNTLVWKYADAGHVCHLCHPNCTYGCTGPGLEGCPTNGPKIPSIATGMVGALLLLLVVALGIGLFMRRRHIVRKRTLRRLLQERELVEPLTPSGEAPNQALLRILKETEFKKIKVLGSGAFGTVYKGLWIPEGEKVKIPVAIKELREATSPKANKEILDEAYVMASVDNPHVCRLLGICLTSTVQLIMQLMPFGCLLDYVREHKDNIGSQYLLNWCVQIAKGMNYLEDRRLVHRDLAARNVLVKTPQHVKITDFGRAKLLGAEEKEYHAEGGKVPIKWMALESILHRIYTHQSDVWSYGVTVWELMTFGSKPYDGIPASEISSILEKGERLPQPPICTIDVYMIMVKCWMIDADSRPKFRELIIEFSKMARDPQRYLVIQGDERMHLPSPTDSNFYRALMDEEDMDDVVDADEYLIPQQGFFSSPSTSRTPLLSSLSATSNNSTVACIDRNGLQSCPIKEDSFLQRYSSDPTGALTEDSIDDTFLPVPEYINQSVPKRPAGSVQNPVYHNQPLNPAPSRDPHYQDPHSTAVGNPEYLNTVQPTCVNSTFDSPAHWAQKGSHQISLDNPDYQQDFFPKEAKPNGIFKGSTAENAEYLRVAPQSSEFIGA

[3] = biological target: Epidermal growth factor receptor (Homo sapiens, UniProt P00533, L858R); experiment: Inhibition of GST-tagged human recombinant EGFR catalytic domain (668 to 1210 amino acids) L858R mutant expressed in Sf9 cells pre-incubated for 30 mins before ATP and substrate addition by homogeneous time-resolved FRET assay
Epidermal growth factor receptor (Homo sapiens, UniProt P00533, L858R), sequence (P00533 25-1210 L858R limits assumed): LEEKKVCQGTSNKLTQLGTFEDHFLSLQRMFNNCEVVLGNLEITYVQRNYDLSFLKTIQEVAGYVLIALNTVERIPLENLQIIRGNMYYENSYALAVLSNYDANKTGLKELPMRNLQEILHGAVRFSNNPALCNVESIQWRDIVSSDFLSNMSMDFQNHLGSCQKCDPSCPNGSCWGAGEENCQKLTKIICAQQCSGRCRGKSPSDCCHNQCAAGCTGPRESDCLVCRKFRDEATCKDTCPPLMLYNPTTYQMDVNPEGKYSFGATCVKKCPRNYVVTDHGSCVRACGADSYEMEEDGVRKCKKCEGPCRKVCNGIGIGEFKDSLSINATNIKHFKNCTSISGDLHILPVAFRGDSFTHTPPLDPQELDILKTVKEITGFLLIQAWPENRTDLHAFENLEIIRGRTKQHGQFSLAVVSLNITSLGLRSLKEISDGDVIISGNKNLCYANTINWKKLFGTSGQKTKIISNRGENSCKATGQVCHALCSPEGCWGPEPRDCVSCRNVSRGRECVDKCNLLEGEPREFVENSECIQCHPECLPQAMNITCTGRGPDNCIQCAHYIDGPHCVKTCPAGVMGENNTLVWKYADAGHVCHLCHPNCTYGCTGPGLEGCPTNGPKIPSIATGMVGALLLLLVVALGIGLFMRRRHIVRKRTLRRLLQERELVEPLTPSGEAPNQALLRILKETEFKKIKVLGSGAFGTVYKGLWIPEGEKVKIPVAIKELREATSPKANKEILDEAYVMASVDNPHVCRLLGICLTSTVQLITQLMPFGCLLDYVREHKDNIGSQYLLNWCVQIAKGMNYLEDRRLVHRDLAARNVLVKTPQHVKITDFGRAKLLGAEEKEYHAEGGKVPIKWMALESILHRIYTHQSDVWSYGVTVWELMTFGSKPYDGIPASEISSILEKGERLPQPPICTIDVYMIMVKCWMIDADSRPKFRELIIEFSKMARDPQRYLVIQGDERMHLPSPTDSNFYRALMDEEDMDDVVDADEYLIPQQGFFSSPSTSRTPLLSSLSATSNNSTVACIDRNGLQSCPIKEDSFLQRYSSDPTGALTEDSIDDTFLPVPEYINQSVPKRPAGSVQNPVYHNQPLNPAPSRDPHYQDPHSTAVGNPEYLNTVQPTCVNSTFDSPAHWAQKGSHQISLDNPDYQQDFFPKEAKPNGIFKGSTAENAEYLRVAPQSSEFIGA

[4] = test system: Proto-oncogene tyrosine-protein kinase Src (Homo sapiens), P12931 [T341M,S348C]; experiment: Induction of covalent modification of c-Src kinase domain (251 to 533 residues) T338M/S345C mutant (unknown origin) assessed as protein mass increase at 100 uM incubated for 1 hr by mass spectrometry method
[5] = test system: Proto-oncogene tyrosine-protein kinase Src (Homo sapiens), P12931 [T341M,S348C]; experiment: Induction of covalent modification of c-Src kinase domain (251 to 533 residues) T338M/S345C mutant (unknown origin) at 100 uM incubated for 1 hr by mass spectrometry method
[6] = biological target: Proto-oncogene tyrosine-protein kinase Src (Homo sapiens) (UniProt P12931); experiment: Induction of covalent modification of wild type c-Src kinase domain (251 to 533 residues) (unknown origin) at 100 uM incubated for 1 hr by mass spectrometry method

| IC50 [1] [nM] | IC50 [2] [nM] | IC50 [3] [nM] | Activity [4] [Da] | Activity [5] | Activity [6] | SMILES |
| --- | --- | --- | --- | --- | --- | --- |
| 5600 | 830 | 2800 | 537 |  |  | COc1cc(N2CCN(C)CC2)ccc1Nc1ncc(Cl)c(Oc2cccc(NC(=O)/C=C/C3CC3)c2)n1 |
| > 10000 | 770 | 2000 |  | inactive | inactive | COc1cc(N2CCN(C)CC2)ccc1Nc1ncc(Cl)c(Oc2cccc(NC(=O)CCC3CC3)c2)n1 |
| > 10000 | 400 | 1300 |  |  |  | COc1cc(N2CCN(C)CC2)ccc1Nc1ncc(Cl)c(Oc2cccc(NC(=O)/C(C#N)=C/C(C)(C)C)c2)n1 |
| > 10000 | 2200 | 6300 |  |  |  | COc1cc(N2CCN(C)CC2)ccc1Nc1ncc(Cl)c(Oc2cccc(NC(=O)/C(=C/c3ccc(N(C)C)cc3)C(F)(F)F)c2)n1 |
| > 10000 | 180 | 490 |  |  |  | COc1cc(N2CCN(C)CC2)ccc1Nc1ncc(Cl)c(Oc2cccc(NC(C)=O)c2)n1 |
| > 10000 | 940 | 1800 |  |  |  | COc1cc(N2CCN(C)CC2)ccc1Nc1ncc(Cl)c(Oc2cccc(NC(=O)/C(C#N)=C/c3ccc(C#N)cc3)c2)n1 |
|  |  |  | 560 |  | Active | COc1cc(N2CCN(C)CC2)ccc1Nc1ncc(Cl)c(Oc2cccc(NC(=O)/C(C#N)=C/C3CC3)c2)n1 |
| > 10000 | 720 | 1800 |  |  |  | COc1cc(N2CCN(C)CC2)ccc1Nc1ncc(Cl)c(Oc2cccc(NC(=O)/C(C#N)=C/c3cccc([N+](=O)[O-])c3)c2)n1 |
| > 10000 | 6300 | > 10000 |  |  |  | COc1cc(N2CCN(C)CC2)ccc1Nc1ncc(Cl)c(Oc2cccc(NC(=O)/C(=C/c3ccc(F)cc3)C(F)(F)F)c2)n1 |
| > 10000 | 330 | 1300 |  |  |  | COc1cc(N2CCN(C)CC2)ccc1Nc1ncc(Cl)c(Oc2cccc(NC(=O)/C(C#N)=C/c3ccco3)c2)n1 |
| 4800 | 510 | 830 |  |  |  | COc1cc(N2CCN(C)CC2)ccc1Nc1ncc(Cl)c(Oc2cccc(NC(=O)/C(C#N)=C/c3ccc(SC)cc3)c2)n1 |
| 7000 | 120 | 540 |  |  |  | COc1cc(N2CCN(C)CC2)ccc1Nc1ncc(Cl)c(Oc2cccc(NC(=O)/C(C#N)=C/c3ccc(F)cc3)c2)n1 |
| > 10000 | 1200 | 2300 |  |  |  | COc1cc(N2CCN(C)CC2)ccc1Nc1ncc(Cl)c(Oc2cccc(NC(=O)/C(C#N)=C/c3ccc([N+](=O)[O-])cc3)c2)n1 |
| > 10000 | 800 | 1200 |  |  |  | COc1cc(N2CCN(C)CC2)ccc1Nc1ncc(Cl)c(Oc2cccc(NC(=O)/C(C#N)=C/C(C)C)c2)n1 |
| > 10000 | 1200 | 2200 |  |  |  | COc1cc(N2CCN(C)CC2)ccc1Nc1ncc(Cl)c(Oc2cccc(NC(=O)/C(C#N)=C/C3CCCC3)c2)n1 |
| > 10000 | > 10000 | > 10000 |  |  |  | COc1cc(N2CCN(C)CC2)ccc1Nc1ncc(Cl)c(Oc2cccc(NC(=O)/C(C#N)=C/c3ccc(N(C)C)cc3)c2)n1 |
| 8700 | 37 | 150 |  |  |  | COc1cc(N2CCN(C)CC2)ccc1Nc1ncc(Cl)c(Oc2cccc(NC(=O)/C(C#N)=C/c3ccncc3)c2)n1 |
